Assay results taken from patent publication US20090206245A1, “Mass analysis method using fine metal particles” (Shionogi CO., Ltd, priority 2004, published 2009).

Biological target: β1-4 galactosyltransferase (GalT)
Experiment: Inhibiting activity of UDP against GalT reaction on a sugar chain (GlcNAc)-fine gold particle complex, tracked by MALDI-TOF MS
Assay type: biochemical
Settings: GlcNAc-Au 50 μM, UDP-Gal 400 μM, four mU GalT, HEPES buffer (10 mM MnCl2, 0.15 M NaCl), 25° C., 60 minutes; from plot of FIG. 8
Procedure: 100 μL of MHEPES buffer solution (10 mM MnCl2, 0.15 M NaCl) of the sugar chain-fine gold particles (GlcNAc-Au:50 μM) produced in accordance with Example 4 and UDP-Gal (400 μM), was prepared. Four mU of β1-4 galactosyltransferase (GalT) was added to the buffer solution, and the sugar chain elongation reaction was tracked at 25° C. by using MALDI-TOF Mass spectroscopy. The reaction solution was not subjected to centrifugal filtration, but to MALDI-TOF mass spectrometry using 2,5-dihydroxybenzoic acid (DHB) as a matrix (FIG. 6). […] FIG. 7 indicates a plot representing temporal variation in extent of the sugar-chain elongation reaction, which was derived from the spectrum shown in FIG. 6.
100 μL of MHEPES buffer solution (10 mM MnCl2, 0.15 M NaCl) of the sugar chain-fine gold particles (GlcNAc-Au: 50 μM) produced in accordance with Example 4 and UDP-Gal (400 μM), was prepared. Four mU of β1-4 galactosyltransferase (GalT) and UDP (prepared at nine concentration levels in the range of 0-50 μM) was then added to the buffer solution, and the solution was subjected to reaction at 25° C. for 60 minutes.

SMILES: O=c1ccn([C@@H]2O[C@H](COP(=O)(O)OP(=O)(O)O)[C@@H](O)[C@H]2O)c(=O)[nH]1 [UDP]
- IC50: 300 µM
